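Step 1: Grow cells in 96-well plates. Step 2: Expose to compound for 48 hours at 5 concentrations. Step 3: Interpolate endpoints linearly; if unreached, use highest concentration. The concentration for 50% growth inhibition is given as GI50. Definition used: TGI = concentration required for complete inhibition of growth.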
Tests used:
Experiment in all cases: DTP human tumour cell line panel, 48 h
CAKI-1 renal = system: CAKI-1 renal
HL-60(TB) leukemia = system: HL-60(TB) leukemia
SF-268 CNS = system: SF-268 CNS
M14 melanoma = system: M14 melanoma
MALME-3M melanoma = system: MALME-3M melanoma
MDA-N = system: MDA-N
SK-MEL-5 melanoma = system: SK-MEL-5 melanoma
NCI-H23 lung = system: NCI-H23 lung
HCT-116 colon = system: HCT-116 colon
NCI-H226 lung = system: NCI-H226 lung

Structure (SMILES) | TGI (CAKI-1 renal) [µM] | TGI (HL-60(TB) leukemia) [µM] | TGI (SF-268 CNS) [µM] | TGI (M14 melanoma) [µM] | TGI (MALME-3M melanoma) [µM] | TGI (MDA-N) [µM] | TGI (SK-MEL-5 melanoma) [µM] | TGI (NCI-H23 lung) [µM] | TGI (HCT-116 colon) [µM] | TGI (NCI-H226 lung) [µM] | GI50 (CAKI-1 renal) [µM] | GI50 (SK-MEL-5 melanoma) [µM] | GI50 (NCI-H23 lung) [µM] | GI50 (NCI-H226 lung) [µM]
Cc1c(-c2ccccc2)c(C#N)c2nnn(-c3ccccc3)c(=O)n12 | > 100 | > 100 | > 100 | > 100 | > 100 | > 100 | > 100 | > 100 | > 100 | > 100 | – | – | – | –
CCCCC/C=C1/CC(CO)(COC(=O)CC(C(C)C)C(C)C)OC1=O (centres undefined) | 23.1 | – | 30.3 | 27.1 | 18.2 | 17 | 21.5 | 31.7 | 28 | 24.9 | – | – | – | –
CCCC(Sc1nc(N)nc2nc[nH]c12)C(=O)O (centres undefined) | > 100 | > 100 | > 100 | > 100 | > 100 | > 100 | > 100 | > 100 | > 100 | > 100 | – | – | – | –
Cc1c(CNc2ccc(Cl)c(C(=O)NC(CC(=O)O)C(=O)O)c2)ccc2nc(N)nc(N)c12 (centres undefined) | > 1000 | > 1000 | > 1000 | > 1000 | 692 | > 1000 | > 1000 | > 1000 | > 1000 | > 1000 | 0.617 | 0.36 | 0.357 | > 1000
COc1ccc(-c2oc3ccc(C)cc3c(=O)c2O)cc1 | > 100 | > 100 | > 100 | > 100 | > 100 | > 100 | > 100 | > 100 | > 100 | > 100 | – | – | – | –
Cn1ccnc1CCc1ccc(F)cc1F | – | > 100 | > 100 | > 100 | > 100 | > 100 | > 100 | > 100 | – | > 100 | – | – | – | –
NNC(=O)CC(=O)Nc1ccc(Cl)cc1 | > 100 | > 100 | > 100 | – | > 100 | > 100 | > 100 | > 100 | > 100 | > 100 | – | – | – | –
Cc1oc2nc1C(=O)NCc1nc(cs1)C(=O)N[C@H](C(C)C)c1nc(cs1)C(=O)N[C@H]2C | > 100 | – | > 100 | > 100 | > 100 | > 100 | > 100 | > 100 | > 100 | > 100 | – | – | – | –
CCNC(=S)N/N=C/c1cc(OC)ccc1O | – | > 100 | > 100 | > 100 | > 100 | > 100 | > 100 | > 100 | > 100 | > 100 | – | – | – | –
CN(C)CCCn1c(Cc2ccccc2)nc2cc(C(F)(F)F)ccc21 | 51.1 | – | > 100 | 30.4 | 35.5 | 33.1 | 33.2 | 83.2 | 33.2 | > 100 | – | – | – | –
O=C1COC(c2ccccc2O)=NN1CCCN1CCCC1 | > 100 | – | > 100 | > 100 | > 100 | > 100 | > 100 | > 100 | > 100 | > 100 | – | – | – | –
O=[N+]([O-])c1ccc2c(c1)nc(Cc1ccccc1)n2C[C@@H]1CCCN2CCCCC12 (some centres undefined) | > 100 | – | > 100 | 33.1 | 29.2 | 38.6 | 31.4 | > 100 | > 100 | > 100 | – | – | – | –
CC(C)OC(=O)c1ccc(NCC2=CC(=O)C=CC2=O)cc1Cl | 6.19 | > 21.8 | 35.2 | > 100 | – | 25.2 | > 57.6 | 33.1 | > 53.2 | > 62.6 | – | – | – | –
CCNc1nc(N)c(C(=O)c2ccc(Cl)cc2)s1 | – | 36 | > 100 | > 100 | > 100 | > 100 | > 100 | > 100 | > 100 | 70.6 | – | – | – | –
CN(C(=O)C12C3C4(C(=O)O)C1(C(=O)N(C)C(C)(C)C)C1C2(C(=O)O)C3(C(=O)N(C)C(C)(C)C)C14C(=O)N(C)C(C)(C)C)C(C)(C)C (centres undefined) | > 100 | > 100 | > 100 | > 100 | – | > 100 | > 100 | > 100 | > 100 | – | – | – | – | –
Cc1ccc(S(=O)(=O)NC(=O)NC(Cc2c[nH]c3ccccc23)C(=O)O)cc1 (centres undefined) | – | > 100 | > 100 | > 100 | > 100 | > 100 | > 100 | > 100 | > 100 | – | – | – | – | –
CC1CN=C(Nc2cccc(C(F)(F)F)c2)S1 (centres undefined) | – | 77 | > 100 | > 100 | > 100 | > 100 | – | > 100 | > 100 | > 100 | – | – | – | –

Structure (SMILES) | TGI (CAKI-1 renal) [µM] | TGI (HL-60(TB) leukemia) [µM] | TGI (SF-268 CNS) [µM] | TGI (M14 melanoma) [µM] | TGI (MALME-3M melanoma) [µM] | TGI (MDA-N) [µM] | TGI (SK-MEL-5 melanoma) [µM] | TGI (NCI-H23 lung) [µM] | TGI (HCT-116 colon) [µM] | TGI (NCI-H226 lung) [µM] | GI50 (CAKI-1 renal) [µM] | GI50 (SK-MEL-5 melanoma) [µM] | GI50 (NCI-H23 lung) [µM] | GI50 (NCI-H226 lung) [µM]
COc1ccc2c(c1)OCC1(O)Cc3ccccc3OC21 (centres undefined) | > 100 | – | > 100 | > 100 | > 100 | > 100 | > 100 | > 100 | > 100 | > 100 | – | – | – | –
Cc1cccc2c1C(=O)C1(Cc3ccccc3C1=O)C2 (centres undefined) | – | > 100 | > 100 | > 100 | > 100 | > 100 | > 100 | > 100 | > 100 | > 100 | – | – | – | –
C=CCOc1ccc(C2c3c([nH][nH]c3=O)CC(O)(OCC)C2C(=O)OCC)cc1OC (centres undefined) | > 100 | > 100 | > 100 | > 100 | > 100 | > 100 | > 100 | > 100 | > 100 | – | – | – | – | –
COc1ccc(/C=N\N2CC(=O)N3C4C=CC(CC4)N3C2=O)cc1 (centres undefined) | > 100 | > 100 | > 100 | > 100 | – | > 100 | > 100 | > 100 | > 100 | > 100 | – | – | – | –
CSC1=Nc2ccccc2-c2nc(-c3ccccc3)cc(-c3ccccc3)c2C1 | 30 | > 100 | – | 37.1 | – | > 100 | 75.1 | 33.5 | 30.7 | > 100 | – | – | – | –
O=S(=O)(c1cc(Cl)ccc1Cl)N1CCN(S(=O)(=O)c2cc(Cl)ccc2Cl)CC1 | > 100 | – | > 100 | > 100 | > 100 | > 100 | > 100 | 18.7 | > 100 | > 100 | – | – | – | –
O=C1NN=C(c2ccc(Cl)cc2)CC1C1C(=O)N(c2ccccc2)N=C1c1ccccc1 (centres undefined) | – | > 100 | > 100 | > 100 | > 100 | > 100 | – | 62.8 | 44.8 | 91.8 | – | – | – | –
Cc1ccccc1N=C(N)NC#N | > 100 | > 100 | > 100 | > 100 | > 100 | > 100 | > 100 | > 100 | > 100 | – | – | – | – | –
CCSc1ncnc2c(C3OC(CO)C(O)C3O)nsc12 (centres undefined) | > 100 | > 100 | > 100 | > 100 | > 100 | > 100 | > 100 | – | > 100 | > 100 | – | – | – | –
CCOC(=O)C1=CN=C2C(=O)N(c3ccccc3)N(C)C2(C)C1=N (centres undefined) | > 100 | > 100 | – | > 100 | > 100 | > 100 | > 100 | > 100 | > 100 | > 100 | – | – | – | –
CCCSc1cc(Cl)c(C)cc1S(=O)(=O)n1ccnc1OCCCN(C)C | > 100 | – | > 100 | > 100 | > 100 | > 100 | > 100 | > 100 | > 100 | > 100 | – | – | – | –
c1ccc2c(c1)c1c(n2CCOCCN2CCCCC2)CCCC1 | – | 8.33 | 37.7 | 25.7 | 26.7 | 28.7 | 21.1 | 37.4 | 25 | 38.5 | – | – | – | –
CN(Cc1c2ccccc2cc2ccccc12)S(=O)(=O)c1ccc(-c2c3nc(c(-c4ccc(S(=O)(=O)N(C)Cc5c6ccccc6cc6ccccc56)cc4)c4ccc([nH]4)c(-c4ccc(S(=O)(=O)N(C)Cc5c6ccccc6cc6ccccc56)cc4)c4nc(c(-c5ccc(S(=O)(=O)N(C)Cc6c7ccccc7cc7ccccc67)cc5)c5ccc2[nH]5)C=C4)C=C3)cc1 | > 100 | > 100 | > 100 | > 100 | > 100 | > 100 | > 100 | > 100 | > 100 | – | – | – | – | –
COc1cc2c(cc1OC)C1CN3C(=O)CCC3C(O)C1c1cc(OC)c(OC)cc1-2 (centres undefined) | > 100 | > 100 | > 100 | > 100 | > 100 | > 100 | > 100 | > 100 | > 100 | – | – | – | – | –
CC(=O)N1N=C(c2c(O)ccc3ccccc23)CC1C(=O)c1ccco1 (centres undefined) | > 100 | – | > 100 | > 100 | > 100 | 76.9 | 89.9 | 84.6 | 50.3 | > 100 | – | – | – | –
O=C(O)CC(NC(=O)Nc1ccc([N+](=O)[O-])cc1)C(=O)Nc1ccc([N+](=O)[O-])cc1 (centres undefined) | > 100 | – | > 100 | > 100 | > 100 | > 100 | > 100 | > 100 | > 100 | > 100 | – | – | – | –

Reference: PubChem BioAssay (NCI)
